Results published in article PMC7801313, “Effect of lurbinectedin on the QTc interval in patients with advanced solid tumors: an exposure–response analysis” (Cancer Chemotherapy and Pharmacology, 2020).
≈ marks a conversion by molar mass, not a printed value. Where “and” joins values, the source holds several entries; their conditions need not be identical. Equal entries are not always repeated. Where two headings read alike, the source gives them in different places.

What was measured:
[1] = cited from earlier work
cytochrome P450 (CYP) 3A = tested on: cytochrome P450 (CYP) 3A; parameters: method as in data on file; conditions: in vitro studies; ref data on file; cited from earlier work
hERG = tested on: hERG; parameters: method as in data on file; conditions: ref data on file; cited from earlier work
[2] = tested on: patients with advanced solid tumors; experiment: concentration-ΔQTcF linear mixed-effects modelling; assay type: in vivo, human
Protocol: C–ΔQTcF was assessed using a linear mixed-effects (LME) model, as proposed by Garnett et al.. As the data available came from a single arm study, the LME model was characterized by the intercept ( θ1 ) and the slope ( θ2 ), and their corresponding variabilities.1 ΔQTcFij=θ1·e^η1,i+θ2·e^η2,i·Cij+θ3·Cycle+ϵij, where Cij is the model-predicted lurbinectedin total plasma concentrations (or the lurbinectedin concentrations in the effect compartment if a hysteresis is present), and η1,i and η2,i are the random effects associated with the intercept term θ1 and the slope term θ2 , respectively, and are assumed to be exponential, independent, and normally distributed. Furthermore, ϵij is the random residual variability, assumed to be an additive, independent, and normally distributed random variable. In the absence of placebo data, the unstructured placebo model consisting on the fixed effect parameters accounting for treatment-specific intercept (TRT), mean ΔQTcF at each time point evaluated (TIME), and baseline QTc was not included in the model. Based on the fact that ECG and PK assessments in this study were performed on two occasions (cycle 1 and cycle 2), the effect of cycle θ3 was also assessed in the models. To select the model for the C-ΔQTcF analysis (i.e., direct or indirect), a potential delay of the ΔQTcF effect relative to plasma concentrations (hysteresis) was graphically and statistically assessed, as proposed by Darpo et al.. To enable an adequate comparison of the model fit between the direct effect model and the effect compartment model, the model-based predicted total plasma concentrations at central compartment (“direct” model) and at the effect compartment (“indirect” model) were used. These were based on the individual PK parameters, obtained through a maximum a posteriori estimation based on the individual total plasma concentration available for each subject and a population PK model previously developed.
The assumption of linearity of the C–ΔQTcF relationship was assessed by goodness-of-fit plots. Besides, a model with an empirical quadratic term of total plasma concentration was fitted and the significance of the quadratic term was tested. In case of the absence of trends in the goodness-of-fit plots and a non-significant quadratic term, the C–∆QTcF relationship was considered linear; otherwise, the relationship was considered non-linear.
The predicted effect of lurbinectedin on ΔQTcF was estimated at the Cmax geometric mean either at the central or at the effect compartment in the first two cycles following the administration of 3.2 mg/m^2 i.v. over 1-h q3wk and was calculated as the estimated intercept ( θ1,Est ) plus the product of the estimated slope ( θ2,Est ) and geometric mean Cmax ( C ):2 EstimatedMeanΔQTcFC=θ1,Est+C×θ2,Est.
Two-sided 90% confidence intervals (CIs) of the estimated ΔQTcF were computed from Eqs. 3 and 4:3 EstimatedSE=varθ1,Est+C^2varθ2,Est+2Ccovθ1,Estθ2,Est 4 90%CI=EstimatedMeanΔQTcC±t0.95,DF×EstimatedSE, where varθ1,Est is the variance of the intercept, varθ2,Est is the variance of the slope, and covθ1,Estθ2,Est is the covariance of intercept and slope; t is the critical value determined from the t-distribution; DF is the degrees of freedom; SE is the standard error; and CI is the confidence interval.
To exclude a prolongation of QT for lurbinectedin assuming that there is no placebo effect, the upper bound (UB) of the 2-sided 90% CI of the model-predicted mean ΔQTcF had to be lower than 10 ms (threshold set at the ICH E14 Q&A R3 [11]), at the Cmax geometric mean obtained after administration of the clinically relevant dose of 3.2 mg/m^2 i.v. over 1-h q3wk.
The Cmax geometric mean either at the central or at the effect compartment, at which UB 90% CI of the model-predicted mean ΔQTcF would be above 10 ms and 20 ms thresholds, was also estimated according to the formulas provided above.

[3] = parameters: method as in data on file; conditions: ref data on file; cited from earlier work

COc1ccc2[nH]c3c(c2c1)CCN[C@]31CS[C@@H]2c3c(OC(C)=O)c(C)c4c(c3[C@H](COC1=O)N1[C@@H]2[C@H]2c3c(cc(C)c(OC)c3O)C[C@@H]([C@@H]1O)N2C)OCO4 [lurbinectedin, Lurbinectedin]
population estimate for total plasma clearance ([1]; 1-h i.v. infusion, cancer patients): 11.2 L/h
extraction ratio [1]: 0.19
inter-individual variability of all PK parameters [1]: 20.9 to 51.2%
population estimate of apparent volume at steady state [1]: 438 L and 438.4 L
reduction of clearance ([1]; co-administration of CYP3A inhibitors): 30%
blood CL ([1]; corresponding to plasma clearance): ~ 17 L/h
reduction of clearance ([1]; high C-reactive protein): 20%
reduction of clearance ([1]; high α-1-acid glycoprotein): 28%
reduction of clearance ([1]; low albumin): 20%
role of metabolism by CYP3A in clearance (cytochrome P450 (CYP) 3A): major clearance mechanism
IC50 (hERG): 8.8 µM
IC50 hERG (hERG): 6.9 µg/mL (≈ 8.79 µM)
Cmax at the effect compartment associated with 10 ms UB 90% CI of ΔQTcF ([2]; delayed effect model): 36.18 ng/mL
Cmax at the effect compartment associated with 20 ms UB 90% CI of ΔQTcF ([2]; delayed effect model): 61.94 ng/mL
dose corresponding to 10 ms UB 90% CI of ΔQTcF ([2]; delayed effect model): 3.8 mg/m^2
dose corresponding to 20 ms UB 90% CI of ΔQTcF ([2]; delayed effect model): 6.5 mg/m^2
fold increase over recommended dose Cmax at 10 ms threshold ([2]; delayed effect model): 1.21 fold
fold increase over recommended dose Cmax at 20 ms threshold ([2]; delayed effect model): 2.03 fold
Cmax associated with 10 ms UB 90% CI of ΔQTcF ([2]; direct effect model): 129.05 ng/mL
Cmax associated with 20 ms UB 90% CI of ΔQTcF ([2]; direct effect model): 241.25 ng/mL
dose corresponding to 10 ms UB 90% CI of ΔQTcF ([2]; direct effect model): 3.6 mg/m^2
dose corresponding to 20 ms UB 90% CI of ΔQTcF ([2]; direct effect model): 6.6 mg/m^2
Cmax (central compartment) ([2]; direct effect model, recommended dose): 116.62 ng/mL
Slope of C-ΔQTcF ([2]; final delayed effect (effect compartment) model): 0.289 L·ms/µg
Keo, equilibration rate constant ([2]; final delayed effect model): 0.298 h⁻¹
Slope of C-ΔQTcF ([2]; final direct model): 0.072 L·ms/µg
protein binding [3]: highly protein-bound
